No end group written: not given here.
T1: human TAS1R2-I486V/TAS1R3-WT (Homo sapiens, UniProt Q7RTX0+Q8TE23, I486V)
T1 construct: expressed in transfected cells; host or cells: HEK293T-Gα16gust44
T1 sequence (Q8TE23 20-839 I486V): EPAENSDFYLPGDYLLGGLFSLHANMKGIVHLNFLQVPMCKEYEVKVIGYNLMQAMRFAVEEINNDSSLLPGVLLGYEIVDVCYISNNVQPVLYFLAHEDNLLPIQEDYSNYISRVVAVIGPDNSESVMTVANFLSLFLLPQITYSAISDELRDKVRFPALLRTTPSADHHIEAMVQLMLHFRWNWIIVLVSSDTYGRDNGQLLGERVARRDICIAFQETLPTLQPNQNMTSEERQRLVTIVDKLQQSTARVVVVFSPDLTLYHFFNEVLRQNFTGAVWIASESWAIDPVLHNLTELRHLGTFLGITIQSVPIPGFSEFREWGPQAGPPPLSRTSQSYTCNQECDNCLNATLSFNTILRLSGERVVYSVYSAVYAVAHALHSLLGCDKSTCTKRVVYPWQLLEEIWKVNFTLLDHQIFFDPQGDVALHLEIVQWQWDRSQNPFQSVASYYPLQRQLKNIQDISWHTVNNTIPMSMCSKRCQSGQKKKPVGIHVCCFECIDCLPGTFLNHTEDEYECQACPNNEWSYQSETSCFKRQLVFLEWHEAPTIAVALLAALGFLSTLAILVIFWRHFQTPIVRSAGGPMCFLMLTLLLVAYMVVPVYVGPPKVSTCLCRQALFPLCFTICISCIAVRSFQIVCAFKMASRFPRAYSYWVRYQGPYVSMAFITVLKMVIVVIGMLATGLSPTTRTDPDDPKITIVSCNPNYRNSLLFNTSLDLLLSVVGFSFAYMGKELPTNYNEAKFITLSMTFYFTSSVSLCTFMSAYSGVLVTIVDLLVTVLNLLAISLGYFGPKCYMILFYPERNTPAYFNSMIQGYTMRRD
T1 sequence (Q7RTX0 21-852): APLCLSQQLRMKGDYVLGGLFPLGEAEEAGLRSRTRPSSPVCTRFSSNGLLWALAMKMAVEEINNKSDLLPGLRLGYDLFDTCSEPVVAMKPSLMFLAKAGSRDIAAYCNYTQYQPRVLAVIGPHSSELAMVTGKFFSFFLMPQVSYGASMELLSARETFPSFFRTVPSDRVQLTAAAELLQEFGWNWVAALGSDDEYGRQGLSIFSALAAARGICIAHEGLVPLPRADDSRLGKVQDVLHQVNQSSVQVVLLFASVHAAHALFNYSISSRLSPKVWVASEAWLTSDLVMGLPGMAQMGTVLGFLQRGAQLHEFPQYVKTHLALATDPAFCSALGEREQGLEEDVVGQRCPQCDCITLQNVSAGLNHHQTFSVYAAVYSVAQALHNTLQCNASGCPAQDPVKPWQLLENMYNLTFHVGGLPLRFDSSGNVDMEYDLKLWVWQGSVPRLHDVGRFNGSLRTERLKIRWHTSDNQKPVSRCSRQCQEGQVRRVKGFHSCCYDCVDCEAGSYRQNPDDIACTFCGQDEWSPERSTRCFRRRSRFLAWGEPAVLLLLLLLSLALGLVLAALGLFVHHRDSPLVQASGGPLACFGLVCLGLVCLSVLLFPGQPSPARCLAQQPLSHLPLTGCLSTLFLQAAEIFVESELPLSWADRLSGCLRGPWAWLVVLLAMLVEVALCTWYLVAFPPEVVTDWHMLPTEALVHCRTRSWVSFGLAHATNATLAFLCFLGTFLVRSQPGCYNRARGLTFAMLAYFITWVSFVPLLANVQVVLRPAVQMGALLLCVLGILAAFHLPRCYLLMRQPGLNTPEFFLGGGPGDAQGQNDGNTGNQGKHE


Molecular target: T1, human TAS1R2-I486V/TAS1R3-WT
Assay: Calcium mobilisation assay, TAS1R2 variant I486V with TAS1R3-WT
Assay type: cell-based
Details: for Max ΔF/F0: maximal signal amplitude
Text: The coding sequences for TAS1R2 and TAS1R3 were commercially synthesised, and the human codon was optimised for expression in human cells. The coding sequences of human TAS1R2 and TAS1R3 were subcloned and inserted into the mammalian expression vectors pcDNA6/myc-HisA and pcDNA4/myc-HisA (Invitrogen; Thermo Fisher Scientific; Illkirch, France) between the EcoRI and NotI restriction sites, generating the plasmids pcDNA6-TAS1R2 and pcDNA4-TAS1R3, respectively. To increase protein expression in mammalian cells, an upstream start codon was used, which was a sequence called MAX, corresponding to the QBI SP163 element also described in pcDNA4-HisMax (Invitrogen; Thermo Fisher Scientific; Illkirch, France). To measure the expression level of the receptor by immunohistochemistry, we used the FLAG sequence ([…]) in the C-terminal position, which encodes the FLAG tag epitope. SNP variants of TAS1R2 and TAS1R3 were constructed based on […], respectively, using site-directed mutagenesis (Genewiz; Leipzig, Germany).
The HEK293T cells were kindly provided by Jay P. Slack (Givaudan Flavors Corporation; Cincinnati, OH, USA). HEK293T cells stably transfected with Gα16gust44 [43, 67] were seeded in poly-D-lysine-coated clear-bottom black 96-well plates (0.35 × 10^5 cells/well) in high-glucose DMEM supplemented with 2 mM GlutaMAX, 10% dialysed foetal bovine serum with penicillin/streptomycin and G418 (400 μg/mL) at 37 °C and 6.3% CO2 in a humidified atmosphere as previously reported. […] As a negative control, HEK293T cells were mock-transfected with the empty expression vector. After a further 24 h of incubation, the HEK293T cells were washed with C1 buffer (130 mM NaCl, 5 mM KCl, 10 mM HEPES pH 7.4 and 2 mM CaCl2). The 96-well plates containing the cells were then stimulated with sweet-tasting compounds. […] Different concentration ranges were tested depending on the sweet compound injected. The Ca^2+ changes were expressed as fractional changes in fluorescent light intensity: ΔF/F = (F − F0)/F0, where F was the fluorescent light intensity at each point, and F0 was the value of emitted fluorescent light prior to stimulus application. To calculate dose–response relationships, the changes in fluorescence upon stimulus application were averaged, mock-subtracted and baseline-corrected. The dose–response data obtained were adjusted using a 4-parameter logistic equation. The half-maximal effective concentrations (EC50 values) and maximal signal amplitudes were calculated using SigmaPlot software (version 15.0) (Systat Software; San Jose, CA, USA).
For in vitro calcium mobilisation assay performed on hTAS1R2-SNPs, hTAS1R3-SNPs and mTAS1R3-I60T, 6 to 7 concentrations were tested for each sweet compound, plus buffer alone. All concentration–receptor combinations were measured in duplicate, and each experiment was repeated at least 4 times (8 wells/concentration). Results were expressed for each concentration as ΔF/F mean ± SEM and represented as dose–response curves.

Molecule	EC50 [µM]	R1 = Variant EC50/WT EC50	Max ΔF/F0
CC1=CC(=O)NS(=O)(=O)O1 [Acesulfame K, acesulfame K]	778 ± 108	1.1	0.46 ± 0.03
O=S(=O)(O)NC1CCCCC1 [Cyclamate, cyclamate]	1880 ± 36		
C[C@H](CC[C@@H](O[C@@H]1O[C@H](CO[C@@H]2O[C@H](CO)[C@@H](O)[C@H](O)[C@H]2O)[C@@H](O)[C@H](O)[C@H]1O[C@@H]1O[C@H](CO)[C@@H](O)[C@H](O)[C@H]1O)C(C)(C)O)[C@H]1CC[C@@]2(C)[C@@H]3CC=C4[C@@H](CC[C@H](O[C@@H]5O[C@H](CO[C@@H]6O[C@H](CO)[C@@H](O)[C@H](O)[C@H]6O)[C@@H](O)[C@H](O)[C@H]5O)C4(C)C)[C@]3(C)[C@H](O)C[C@]12C [Mogroside V, mogroside V]	20.1 ± 0.9	1.2	1.39 ± 0.02
COc1ccc(CCC(=O)c2c(O)cc(O[C@@H]3O[C@H](CO)[C@@H](O)[C@H](O)[C@H]3O[C@@H]3O[C@@H](C)[C@H](O)[C@@H](O)[C@H]3O)cc2O)cc1O [NHDC, neohesperidin dihydrochalcone]	92.6 ± 5.2	1.2	0.92 ± 0.02
COC(=O)[C@H](Cc1ccccc1)NC(=O)[C@H](CC(=O)O)NCCC(C)(C)C [Neotame]	0.71 ± 0.06	0.8	0.61 ± 0.01
OC[C@H]1O[C@H](O[C@]2(CCl)O[C@H](CCl)[C@@H](O)[C@@H]2O)[C@H](O)[C@@H](O)[C@H]1Cl [Sucralose]	54 ± 5	0.6	0.69 ± 0.02
thaumatin		1.4	1.21 ± 0.02

Results, then the molecule that gave them:

EC50 [µM]	R1 = Variant EC50/WT EC50	Max ΔF/F0	Molecule
17.7 ± 1.2	1.0	1.49 ± 0.04	C=C(C)[C@@H]1CC=C(/C=N/O)CC1 [Perillartine, perillartine]
17.6 ± 0.6	1.0	1.20 ± 0.01	C=C1C[C@@]23CC[C@H]4[C@@](C)(CCC[C@@]4(C)C(=O)O[C@@H]4O[C@H](CO)[C@@H](O)[C@H](O[C@@H]5O[C@H](CO)[C@@H](O)[C@H](O)[C@H]5O)[C@H]4O[C@@H]4O[C@H](CO)[C@@H](O)[C@H](O)[C@H]4O)[C@@H]2CC[C@]1(O[C@@H]1O[C@H](CO)[C@@H](O)[C@H](O[C@@H]2O[C@H](CO)[C@@H](O)[C@H](O)[C@H]2O)[C@H]1O[C@@H]1O[C@H](CO)[C@@H](O)[C@H](O)[C@H]1O)C3 [Rebaudioside M, rebaudioside M]
	1.1	1.19 ± 0.03	brazzein (QDKCKKVYENYPVSKCQLANQCNYDCKLDKHARSGECFYDEKRNLQCICDYCEY; ends and bridges not checked; cysteine pairing not given here; UniProt P56552 1-54, looked up) [sweet-tasting protein obtained by recombinant production using the yeast Pichia pastoris]
10.5 ± 0.3			thaumatin (protein, Eight disulfides, sweet-tasting plant protein, E957) ATFEIVNRCSYTVWAAASKGDAALDAGGRQLNSGESWTINVEPGTKGGKIWARTDCYFDDSGSGICKTGDCGGLLRCKRFGRPPTTLAEFSLNQYGKDYIDISNIKGFNVPMDFSPTTRGCRGVRCAADIVGQCPAKLKAPGGGCNDACTVFQTSEYCCTTGKCGPTEYSRFFKRLCPDAFSYVLDKPTTVTCPGSSNYRVTFCPTA

Source: article PMC11945486, “TAS1R2/TAS1R3 Single-Nucleotide Polymorphisms Affect Sweet Taste Receptor Activation by Sweeteners: The SWEET Project” (Nutrients, 2025)
